Experimental findings from article PMC6199744, “Development of Chemical Proteomics for the Folateome and Analysis of the Kinetoplastid Folateome” (ACS Infectious Diseases, 2018) are described below.

What all share (assay type): binding
Assay [1] addresses T1, HeLa cell extract proteins (Homo sapiens, UniProt P17812).
T1 construct: endogenous in cells; host or cells: HeLa cell extract
T1 sequence (P17812 1-591): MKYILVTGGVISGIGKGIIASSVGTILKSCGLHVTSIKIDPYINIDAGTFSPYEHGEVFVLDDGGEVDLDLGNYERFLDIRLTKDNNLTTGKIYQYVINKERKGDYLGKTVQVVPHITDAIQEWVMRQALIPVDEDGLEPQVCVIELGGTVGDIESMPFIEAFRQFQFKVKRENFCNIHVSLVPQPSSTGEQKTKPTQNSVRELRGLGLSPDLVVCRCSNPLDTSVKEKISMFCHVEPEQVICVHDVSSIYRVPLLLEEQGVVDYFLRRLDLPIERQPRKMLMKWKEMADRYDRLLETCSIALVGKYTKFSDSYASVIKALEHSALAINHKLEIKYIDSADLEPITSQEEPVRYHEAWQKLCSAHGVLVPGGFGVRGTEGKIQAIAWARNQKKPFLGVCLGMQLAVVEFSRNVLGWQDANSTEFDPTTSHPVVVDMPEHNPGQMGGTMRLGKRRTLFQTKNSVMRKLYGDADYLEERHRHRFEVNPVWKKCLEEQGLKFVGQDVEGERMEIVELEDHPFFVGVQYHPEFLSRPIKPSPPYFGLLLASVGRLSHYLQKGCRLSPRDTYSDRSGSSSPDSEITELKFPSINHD

Assay [2] concerns the target T2, HeLa cell extract proteins (Homo sapiens, UniProt Q12769).
T2 construct: endogenous in cells; host or cells: HeLa cell extract
T2 sequence (Q12769 1-1436): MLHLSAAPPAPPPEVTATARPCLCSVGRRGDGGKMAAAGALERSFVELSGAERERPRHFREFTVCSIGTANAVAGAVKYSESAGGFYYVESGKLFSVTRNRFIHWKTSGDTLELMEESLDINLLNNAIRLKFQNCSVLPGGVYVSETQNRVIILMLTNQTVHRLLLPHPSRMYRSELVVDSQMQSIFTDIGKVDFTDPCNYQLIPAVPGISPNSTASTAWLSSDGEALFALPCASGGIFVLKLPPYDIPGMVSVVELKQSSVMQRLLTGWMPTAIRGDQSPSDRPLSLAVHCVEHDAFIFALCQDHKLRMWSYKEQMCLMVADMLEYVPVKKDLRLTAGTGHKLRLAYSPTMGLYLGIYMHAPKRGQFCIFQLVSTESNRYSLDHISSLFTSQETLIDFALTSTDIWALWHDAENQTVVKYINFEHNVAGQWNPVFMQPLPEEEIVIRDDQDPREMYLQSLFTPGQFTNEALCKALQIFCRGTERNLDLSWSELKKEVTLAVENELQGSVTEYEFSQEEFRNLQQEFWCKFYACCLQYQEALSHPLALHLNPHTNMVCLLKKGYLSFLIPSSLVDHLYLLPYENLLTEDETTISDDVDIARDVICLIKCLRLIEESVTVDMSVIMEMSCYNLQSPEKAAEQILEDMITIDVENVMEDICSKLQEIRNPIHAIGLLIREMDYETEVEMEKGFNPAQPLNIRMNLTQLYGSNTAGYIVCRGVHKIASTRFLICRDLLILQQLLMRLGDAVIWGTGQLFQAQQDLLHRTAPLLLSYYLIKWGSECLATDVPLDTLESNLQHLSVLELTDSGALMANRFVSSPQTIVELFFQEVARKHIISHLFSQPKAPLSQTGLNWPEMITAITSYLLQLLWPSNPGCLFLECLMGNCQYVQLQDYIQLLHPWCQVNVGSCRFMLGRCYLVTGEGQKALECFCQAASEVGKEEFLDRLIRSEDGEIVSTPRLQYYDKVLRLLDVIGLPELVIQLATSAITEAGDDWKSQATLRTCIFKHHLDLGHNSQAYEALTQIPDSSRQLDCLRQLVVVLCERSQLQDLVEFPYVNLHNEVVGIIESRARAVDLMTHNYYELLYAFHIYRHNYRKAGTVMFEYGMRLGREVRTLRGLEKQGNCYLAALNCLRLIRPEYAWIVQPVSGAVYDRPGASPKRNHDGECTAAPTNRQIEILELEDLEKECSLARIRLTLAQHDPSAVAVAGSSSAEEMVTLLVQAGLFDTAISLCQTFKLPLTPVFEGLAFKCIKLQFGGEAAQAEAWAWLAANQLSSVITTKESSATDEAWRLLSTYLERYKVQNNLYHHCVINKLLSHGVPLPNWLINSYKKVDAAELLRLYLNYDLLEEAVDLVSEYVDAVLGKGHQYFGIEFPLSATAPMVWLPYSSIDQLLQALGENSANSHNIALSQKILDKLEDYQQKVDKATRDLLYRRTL

The target of assay [3] is T3, HeLa cell extract proteins (Homo sapiens, UniProt P35680).
T3 construct: endogenous in cells; host or cells: HeLa cell extract
T3 sequence (P35680 whole entry): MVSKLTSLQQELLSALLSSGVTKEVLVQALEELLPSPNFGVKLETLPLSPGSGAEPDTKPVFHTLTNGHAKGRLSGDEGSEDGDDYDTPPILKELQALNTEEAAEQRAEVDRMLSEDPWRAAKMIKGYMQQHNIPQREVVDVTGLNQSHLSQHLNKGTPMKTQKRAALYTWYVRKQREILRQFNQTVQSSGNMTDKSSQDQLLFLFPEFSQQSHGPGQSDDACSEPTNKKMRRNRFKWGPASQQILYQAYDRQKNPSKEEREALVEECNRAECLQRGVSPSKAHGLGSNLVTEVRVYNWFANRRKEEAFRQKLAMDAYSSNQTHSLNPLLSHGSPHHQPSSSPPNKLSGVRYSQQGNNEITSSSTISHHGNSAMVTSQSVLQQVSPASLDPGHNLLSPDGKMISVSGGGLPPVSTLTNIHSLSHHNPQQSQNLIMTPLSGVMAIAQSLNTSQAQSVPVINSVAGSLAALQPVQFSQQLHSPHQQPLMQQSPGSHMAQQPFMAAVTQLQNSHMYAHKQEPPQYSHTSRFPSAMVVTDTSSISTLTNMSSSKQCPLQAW

Assay [4] concerns the target T4, HeLa cell extract proteins (Homo sapiens, UniProt P22234).
T4 construct: endogenous in cells; host or cells: HeLa cell extract
T4 sequence (P22234 1-425): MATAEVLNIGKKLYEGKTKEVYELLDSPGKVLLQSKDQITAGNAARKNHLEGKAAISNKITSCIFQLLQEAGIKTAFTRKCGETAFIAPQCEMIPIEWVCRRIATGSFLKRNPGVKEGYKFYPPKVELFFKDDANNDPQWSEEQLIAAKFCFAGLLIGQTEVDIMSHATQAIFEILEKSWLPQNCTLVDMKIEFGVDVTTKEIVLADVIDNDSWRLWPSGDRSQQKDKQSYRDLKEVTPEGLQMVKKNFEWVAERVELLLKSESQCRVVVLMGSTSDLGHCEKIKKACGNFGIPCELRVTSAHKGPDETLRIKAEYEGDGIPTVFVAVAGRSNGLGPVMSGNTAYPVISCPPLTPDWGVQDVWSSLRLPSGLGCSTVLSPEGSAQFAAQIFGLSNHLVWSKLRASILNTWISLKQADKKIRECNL

The target of assay [5] is T5, HeLa cell extract proteins (Homo sapiens, UniProt Q9HBU6).
T5 construct: endogenous in cells; host or cells: HeLa cell extract
T5 sequence (Q9HBU6 1-452): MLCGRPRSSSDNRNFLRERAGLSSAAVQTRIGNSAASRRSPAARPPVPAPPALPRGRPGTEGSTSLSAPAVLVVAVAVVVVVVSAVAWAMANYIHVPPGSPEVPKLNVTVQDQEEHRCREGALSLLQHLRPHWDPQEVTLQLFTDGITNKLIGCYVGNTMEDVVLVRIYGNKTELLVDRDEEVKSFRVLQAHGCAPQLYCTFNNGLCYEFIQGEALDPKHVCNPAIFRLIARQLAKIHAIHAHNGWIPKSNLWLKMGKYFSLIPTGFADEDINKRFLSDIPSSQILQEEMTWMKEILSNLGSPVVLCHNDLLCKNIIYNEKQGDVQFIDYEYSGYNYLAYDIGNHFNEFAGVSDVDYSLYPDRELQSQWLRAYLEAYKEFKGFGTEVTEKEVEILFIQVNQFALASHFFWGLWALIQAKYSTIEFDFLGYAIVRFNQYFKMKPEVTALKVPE

Structures are written as SMILES. Like-named read-outs stand apart in the source and are kept apart here.

For `CCCCCCOc1cccc(Cc2cnc(N)nc2N)c1` [compound 2], the “fold changes relative to vehicle control” value is 1.09 in assay [1] (HeLa, protein CTPS); 1.11 in assay [2] (HeLa, protein NUP160); 1.01 in assay [3] (captured protein HNF1B, HeLa); 1.68 in assay [4] (protein PAICS, HeLa); 0.99 in assay [5] (HeLa, protein ETNK1).

As for `NCCOCCOCC(=O)Nc1nc2ncc(CNc3ccc(C(=O)NC(CCC(=O)O)C(=O)O)cc3)nc2c(=O)[nH]1` (centres unmarked) [compound 6], the “fold changes relative to vehicle control” value in assay [1] (HeLa, protein CTPS) amounted to 0.95; in assay [2] (HeLa, captured protein NUP160), 1.14; in assay [3] (HeLa, protein HNF1B), 0.81; in assay [4] (HeLa, protein PAICS) it was 1.22; in assay [5] (protein ETNK1, HeLa) it was 0.96.

In the case of `CCCCCCOc1ccc(Cc2cnc(N)nc2N)cc1` [compound 1], the “fold changes relative to vehicle control” value in assay [1] (HeLa, protein CTPS) is given as 0.99; in assay [2] (HeLa, protein NUP160), 1.03; in assay [3] (captured protein HNF1B, HeLa), 0.64; in assay [4] (protein PAICS, HeLa), 1.07; in assay [5] (HeLa, protein ETNK1), 0.94.

As for `Nc1nc2c(c(=O)[nH]1)N(C=O)C(CNc1ccc(C(=O)N[C@@H](CCC(=O)O)C(=O)O)cc1)CN2` (some centres unmarked) [LEU, leucovorin], the “fold changes relative to vehicle control” value in assay [1] (HeLa, protein CTPS) was found to be 0.93; in assay [2] (HeLa, captured protein NUP160), 1.02; in assay [3] (HeLa, protein HNF1B), 0.87; in assay [4] (HeLa, protein PAICS), 0.97; in assay [5] (protein ETNK1, HeLa), 0.99.

For the compound `NCCCNc1ccc(C(=O)NC(CCC(=O)O)C(=O)O)cc1` (centres unmarked) [compound 7], the “fold changes relative to vehicle control” value was 0.98 in assay [1] (HeLa, protein CTPS); 1.12 in assay [2] (HeLa, captured protein NUP160); 1.07 in assay [3] (HeLa, protein HNF1B); 0.98 in assay [4] (HeLa, protein PAICS); 1.01 in assay [5] (protein ETNK1, HeLa).

For the compound `Nc1nc2[nH]cc(CCc3ccc(C(=O)N[C@@H](CCC(=O)O)C(=O)O)cc3)c2c(=O)[nH]1` [PTX, pemetrexed], the “fold changes relative to vehicle control” value in assay [1] is recorded as 0.85; in assay [2], 1.07; in assay [3], 0.82; in assay [4], 0.86; in assay [5] it was 0.91.

For `Nc1nc2cccc(-c3ccccc3)c2n1Cc1ccc(Cl)c(Cl)c1` [compound 3], the “fold changes relative to vehicle control” value in assay [1] (HeLa, protein CTPS) was 0.95; in assay [2] (HeLa, protein NUP160), 1.2; in assay [3] (captured protein HNF1B, HeLa), 1; in assay [4] (protein PAICS, HeLa) it was 0.94; in assay [5] (HeLa, protein ETNK1) it was 1.53.
